This passage reports GI50 and TGI results from PubChem BioAssay (NCI).

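Grown in 96-well plates, cells were treated for 48 hours with each compound at five concentrations. Insufficient inhibition: endpoint recorded as highest concentration tested. GI50 = concentration required for 50% inhibition of growth. TGI denotes the concentration required for complete inhibition of growth.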

In this assay the test system is MDA-MB-468 breast. The assay can be described thus: inhibition of tumour cell growth, NCI panel, 48 h.
On to `O=[N+]([O-])c1cc(S(=O)(=O)Oc2ccccc2)ccc1Cl`, for which the GI50 is 1830 nM and the TGI came to 3.64 µM.
Taken in the same sequence, the figures for `COc1ccc(C2[C@@H](Cl)C(=O)N2c2cc(OC)c(OC)c(OC)c2)cc1Cl` (some centres undefined) were 201 nM and 0.963 µM.
`O=C(Nc1cccc(Nc2ncc(Br)c(NCCc3cnc[nH]3)n2)c1)N1CCCC1`: the GI50 is 637 nM and the TGI was 9.09 µM.
With `CCN1C(=O)N(CC)C2C1NN=c1s/c(=C3\C(=O)N(CCc4ccccc4)c4ccccc43)c(=O)n12` (centres undefined), the GI50 was 338 nM and the TGI amounted to 2.37 µM.
Taken in the same sequence, the figures for `CC1(C)N=C(N)N=C(N)N1c1ccc(CCCCc2ccc(S(=O)(=O)F)cc2)c(Cl)c1` were 281 nM and 10.8 µM.
Take `O=c1[nH]cnc2c(C3NC(CO)C(O)C3O)c[nH]c12` (centres undefined): the GI50 is greater than 100000 nM and the TGI was greater than 100 µM.
Turning to `COc1ccc(OC)c(Cn2cc3c(c2)-c2oncc2CC3)c1`, the GI50 was 1200 nM and the TGI amounted to 4.37 µM.
Taken in the same sequence, the figures for `CCN(CCO)CC(C)Nc1ccc([N+](=O)[O-])c2sc3ccccc3c(=O)c12` (centres undefined) were 1680 nM and 7.29 µM.
Consider `CCCCCn1sc(=O)n(Cc2ccc(CNC(=O)OCc3ccc4cccc(O)c4n3)cc2)c1=O`, for which the GI50 is 1710 nM and the TGI came to 3.56 µM.
For the compound `CC1OC(O[C@H]2/C=C/C=C/C=C/C=C/C=C/C=C/C=C/[C@H](C)[C@@H](O)[C@@H](C)[C@H](C)OC(=O)CC(O)CC(O)CCC(O)C(O)CC(O)C[C@]3(O)C[C@H](O)C(C(=O)O)C(C2)O3)C(O)[C@H](N)C1O` (some centres undefined), the GI50 was 14900 nM and the TGI is 32.4 µM.
`CC(=O)Oc1ccccc1C(=O)/C=C/c1cccc([N+](=O)[O-])c1`: the GI50 is 2030 nM and the TGI is 4 µM.
Turning to `Cn1cc(-c2nonc2-c2cn(C)c3ccccc23)c2ccccc21`, the GI50 was 492 nM and the TGI is greater than 32.4 µM.
As for `C[C@@H]1O[C@@H](O[C@H]2CC[C@@]3(C)[C@H](CCC4[C@@H]3C(O)C[C@]3(C)[C@@H](c5ccc(=O)oc5)CC[C@]43O)C2)[C@H](O)[C@H](O)[C@H]1O` (some centres undefined), the GI50 was 5.94 nM and the TGI stood at 0.0121 µM.
`N#CN1CC[C@H](C(=O)Nc2ncc(-c3ccncc3)s2)C1`: the GI50 is less than 15.6 nM and the TGI was less than 0.0282 µM.
`CCOP(=O)(OCC)OC[C@]12CC[C@@H](C)[C@H](C)C1C1=CC[C@@H]3[C@@]4(C)CCCNC(C)(C)[C@@H]4CC[C@@]3(C)[C@]1(C)CC2` (some centres undefined): the GI50 is 1390 nM and the TGI was determined as 2.91 µM.
With `CCN1C(=O)N(CC)C2C1NN=c1s/c(=C\c3ccccc3Br)c(=O)n12` (centres undefined), the GI50 is 35.2 nM and the TGI was 1.15 µM.
In the case of `Cc1nc2ccccc2c(/C=C/c2ccc(Br)cc2)c1C(=O)/C=C/c1ccccc1`, the GI50 is 1980 nM and the TGI is 4.2 µM.
Taken in the same sequence, the figures for `CC(C)(C)c1ccc(C(=O)Nc2sc3c(c2C(N)=O)CCC(=O)C3)cc1` were 506 nM and 2.09 µM.
For the compound `OC(c1cc2cc(Cl)c(Cl)cc2c2cc(C(F)(F)F)ccc12)C1CCCCN1` (centres undefined), the GI50 was 1580 nM and the TGI came to 2.94 µM.
Take `CN1CCN(Cc2ccc(NC(=O)c3[nH]ncc3Nc3ncnc4sc5c(c34)CCCC5)cc2)CC1`: the GI50 is 476 nM and the TGI turned out to be 2.3 µM.
For `COc1ccc(/C=N/NC(=O)Cn2c(-c3ccc(S(C)(=O)=O)cc3)nc3cc(Cl)ccc32)cc1`, the GI50 is 1510 nM and the TGI stood at 9.14 µM.
`COc1cc2c(c(OC)c1OC)-c1ccc(SC)c(=O)cc1[C@@H](NC1OC(CO)C(O)C(O)C1O)CC2` (some centres undefined): the GI50 was 34.3 nM and the TGI was greater than 100 µM.
In the case of `Cc1cccc(NC(=O)c2sc3nc4c(cc3c2N)CN(Cc2ccccc2)CC4)c1C`, the GI50 was 151 nM and the TGI is 11.6 µM.
For `CC(C)(C)CN1CCn2c(nc3c(N)nccc32)S1`, the GI50 is 5380 nM and the TGI turned out to be 50.3 µM.
As to `Cc1c(C2=C(c3cn(C)c4ccccc34)C(=O)NC2=O)c2ccccc2n1C`, the GI50 was 921 nM and the TGI is greater than 22.5 µM.
As for `COc1ccc(C(=O)N2c3ccccc3Sc3ccccc32)c(OC)c1`, the GI50 was 327 nM and the TGI was 56.1 µM.
Taken in the same sequence, the figures for `COc1ccc2cc(-c3c(-c4ccncc4)nc(-c4ccc(S(C)=O)cc4)n3C)ccc2c1` (centres undefined) were 3110 nM and greater than 25 µM.
As for `CCN(Cc1ccc(Cl)s1)c1ccc(CO)c(Cl)c1`, the GI50 was 19.3 nM and the TGI amounted to 0.0526 µM.
For `CCCCn1c(=O)c2c(nc3n2CCCN3CCc2ccc(OCC(=O)NCCN(CC)CC)cc2)n(CCCC)c1=O`, in that order: 1730 nM and 6.86 µM.
Turning to `COC(=O)c1nc(-c2ccccc2)oc1S(=O)(=O)n1nc(C)cc1N`, the GI50 is 3980 nM and the TGI is 16.9 µM.
Turning to `COc1ccc2c(c1)OC1=C(C(=O)OC1)C2c1cc(OC)c2c(c1)OCO2` (centres undefined), the GI50 is 26.4 nM and the TGI worked out at 0.0987 µM.
In the case of `COc1ccc(-c2oc3cc(O)cc(O)c3c(=O)c2OC)cc1O`, the GI50 was 565 nM and the TGI came out at 3.45 µM.
Consider `O=C(Oc1cccnc1)c1ccsc1Nc1ccnc(C(F)(F)F)c1`, for which the GI50 is 1800 nM and the TGI was 4.4 µM.
Turning to `CN1CCC(n2cnc(-c3ccc(F)cc3)c2-c2ccnc(N)n2)CC1`, the GI50 is 3320 nM and the TGI came to 21.1 µM.
For `CC(C)=CCC/C(C)=C/CC/C(C)=C/CC/C=C(\C)CC/C=C(\C)CCC(=O)Nc1ccn(C2OC(CO)C(O)C2(F)F)c(=O)n1` (centres undefined), in that order: 185 nM and 35.8 µM.
Taken in the same sequence, the figures for `O=C1NC(=O)C(c2cccc(Cl)c2)=C1Nc1ccc(O)c(Cl)c1` were 5940 nM and greater than 20.3 µM.
As to `COc1cc(/C=C/[N+](=O)[O-])cc(Br)c1OC`, the GI50 is 1590 nM and the TGI worked out at 3.28 µM.
